Results: the supplement of paper PMC4862054

What was measured:
Settings in all cases: incubation time: 72 h
[1] = tested on: CAL-85-1; assay: drug sensitivity score (DSS), CellTiter-Glo (DSS (AUC-based score)); higher = stronger drug effect (viability inhibition or cytotoxicity); extreme values may be limits of the assay
Procedure, shortened: (§1)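 Normalisation on every plate relied on 0.1 % DMSO and a positive kill control. The plates, 384-well format, held compound at 5 concentrations 10-fold apart across a compound-specific 10,000-fold range, and breast cancer cell lines in 20 µl suspension were incubated on them for 72 h before CellTox Green and then CellTiter-Glo readings. The drug sensitivity score derives from the area under the fitted dose-response curve.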

[2] = tested on: MCF-10A; assay: as above
Procedure, shortened: as §1

[3] = tested on: CAL-148; assay: as above
Procedure, shortened: as §1

[4] = tested on: HCC1143; assay: as above
Procedure, shortened: as §1

[5] = tested on: BT-549; assay: as above
Procedure, shortened: as §1

[6] = tested on: CAL-51; assay: as above
Procedure, shortened: as §1

[7] = tested on: MDA-MB-436; assay: as above
Procedure, shortened: as §1

[8] = tested on: HCC1599; assay: as above
Procedure, shortened: as §1

[9] = tested on: HDQ-P1; assay: normalised viability (% of control), CellTiter-Blue; higher = more viable cells (about 100 = DMSO control)
Procedure, shortened: (§2)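 The reported figure is normalised viability at a single listed concentration of the series. Breast cancer cell lines (20 µl suspension) went onto 384-well plates holding compound in 5 µl medium for 72 h. CellTiter-Blue (2.5 µl, 2 h, 37 °C) was read by fluorescence at 560/590 nm, and each plate was scaled to vehicle at 100 and a positive kill control at 0.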

[10] = tested on: CAL-85-1; assay: as above
Procedure, shortened: as §2

[11] = tested on: MDA-MB-231; assay: as above
Procedure, shortened: as §2

[12] = tested on: MFM-223; assay: as above
Procedure, shortened: as §2

[13] = tested on: CAL-148; assay: as above
Procedure, shortened: as §2

[14] = tested on: CAL-120; assay: as above
Procedure, shortened: as §2

[15] = tested on: BT-474; assay: as above
Procedure, shortened: as §2

[16] = tested on: HCC1143; assay: as above
Procedure, shortened: as §2

[17] = tested on: Hs578T; assay: as above
Procedure, shortened: as §2

[18] = tested on: MDA-MB-453; assay: as above
Procedure, shortened: as §2

[19] = tested on: BT-549; assay: as above
Procedure, shortened: as §2

[20] = tested on: MDA-MB-468; assay: as above
Procedure, shortened: as §2

[21] = tested on: SK-BR-3; assay: as above
Procedure, shortened: as §2

[22] = tested on: CAL-51; assay: as above
Procedure, shortened: as §2

[23] = tested on: MDA-MB-436; assay: as above
Procedure, shortened: as §2

[24] = tested on: HCC1599; assay: as above
Procedure, shortened: as §2

CNC(=O)c1cccc(-c2ccc3c(N4CCOC[C@@H]4C)nc(N4CCOC[C@@H]4C)nc3n2)c1 [AZD2014]
drug sensitivity score [1]: 13.2
drug sensitivity score [2]: 10.3
drug sensitivity score [3]: 13.8
drug sensitivity score [4]: 12.7
drug sensitivity score [5]: 15.3
drug sensitivity score [6]: 17.4
drug sensitivity score [7]: 11.1
drug sensitivity score [8]: 0.92

COC(=O)c1ccc2c(c1)NC(=O)/C2=C(\Nc1ccc(N(C)C(=O)CN2CCN(C)CC2)cc1)c1ccccc1 [BIBF 1120]
normalised viability ([9]; 3 nM): 124%
normalised viability ([9]; 30 nM): 117%
normalised viability ([9]; 100 nM): 124%
normalised viability ([10]; 3 nM): 97.1%
normalised viability ([10]; 30 nM): 98.3%
normalised viability ([10]; 100 nM): 99.6%
normalised viability ([11]; 10 nM): 97.6%
normalised viability ([11]; 1000 nM): 120%
normalised viability ([11]; 10000 nM): 2.46%
normalised viability ([12]; 10 nM): 99.5%
normalised viability ([12]; 1000 nM): 57%
normalised viability ([12]; 10000 nM): 36.6%
normalised viability ([13]; 3 nM): 93.5%
normalised viability ([13]; 30 nM): 99%
normalised viability ([13]; 100 nM): 97.7%
normalised viability ([14]; 10 nM): 82.6%
normalised viability ([14]; 1000 nM): 75.5%
normalised viability ([14]; 10000 nM): 29.7%
normalised viability ([15]; 10 nM): 127%
normalised viability ([15]; 1000 nM): 92.5%
normalised viability ([15]; 10000 nM): 58.6%
normalised viability ([16]; 10 nM): 91%
normalised viability ([16]; 1000 nM): 103%
normalised viability ([16]; 10000 nM): 56.7%
normalised viability ([17]; 10 nM): 102%
normalised viability ([17]; 1000 nM): 111%
normalised viability ([17]; 10000 nM): 34%
normalised viability ([18]; 3 nM): 112%
normalised viability ([18]; 30 nM): 101%
normalised viability ([18]; 100 nM): 104%
normalised viability ([19]; 10 nM): 105%
normalised viability ([19]; 1000 nM): 111%
normalised viability ([19]; 10000 nM): 16.4%
normalised viability ([20]; 10 nM): 108%
normalised viability ([20]; 1000 nM): 112%
normalised viability ([20]; 10000 nM): 17.6%
normalised viability ([21]; 10 nM): 101%
normalised viability ([21]; 1000 nM): 91.8%
normalised viability ([21]; 10000 nM): 42.8%
normalised viability ([22]; 3 nM): 104%
normalised viability ([22]; 30 nM): 96.3%
normalised viability ([22]; 100 nM): 100%
normalised viability ([23]; 10 nM): 120%
normalised viability ([23]; 1000 nM): 122%
normalised viability ([23]; 10000 nM): 43.8%
normalised viability ([24]; 10 nM): 90.9%
normalised viability ([24]; 1000 nM): 95.9%
normalised viability ([24]; 10000 nM): 65.1%
